In patent US11590129B2, “Combination therapy with an antitumor alkaloid” (PHARMA MAR, S.A., priority 2010, dated 2023):

Assays:
[1] = tested on: U87-MG tumors; assay: Human brain tumor xenografts (U87-MG) in athymic nude mice, tumor volume % T/C; format: in vivo
Description: Female athymic nude mice (Harlan Laboratories Models, S.L. (Barcelona, Spain) were utilized for all experiments. Animals were housed in individually ventilated cages, up to ten per cage in a 12-hour light-dark cycle at 21-23° C. and 40-60% humidity. The mice were allowed free access to irradiated standard rodent diet and sterilized water. Animals were acclimated for at least 5 days prior to tumor implantation with a tumor cell suspension.
The tumor model used in these studies was U87-MG cell line, which was obtained from the American Type Culture Collection (ATCC HTB-14™).
U87-MG cells were grown at 37° C. with 5% CO2 in Minimum Essential Medium Eagle (MEME). Each animal was subcutaneously implanted on the right flank, using 26G needle and a 1 cc syringe, with 5×10^6 U87-MG cells, from in vitro passage 5, in 0.05 mL suspension of 50% Matrigel and 50% serum free medium, without antibiotics.
PM01183 was provided in the form of vials of lyophilized PM01183 cake which was reconstituted with water for infusion to a concentration of 0.2 mg/mL. The PM01183 stock solution was further diluted in 5% glucose solution for injection to the dosing formulation concentrations. Temozolomide was provided as a solution prepared by diluting the product in DMSO 10% in 0.9% saline solution for injection to the target final concentration.
In these experiments, PM01183 and temozolomide treatments, as well as placebo, were administered as follows: PM01183, intravenously once per week up to 3 consecutive weeks, on Days 0, 7 and 14, temozolomide orally, in a daily basis during 8 consecutive days (Days 0 to 7), and placebo was administered following the same schedule as those provided for PM01183 and temozolomide. Dose level groups were administered either as single agents or in combination.
Comparison of the median tumor volume in the treatment groups (T) to the median tumor volume in the control group (T/C×100%) was used for evaluation of the antitumor efficacy.

[2] = tested on: RAMOS human lymphoma cell line; assay: cells; conditions: Homo sapiens, Ramos, 72 h
Description: (§1) Briefly, cells were seeded in 96 well microtiter plates at a density of 50000 cells per well in 150 μL of culture medium and incubated for 4-6 hours in drug-free medium before treatment with vehicle alone or test compounds for 72 hours.
(§2) After incubation, the cytotoxic effect was evaluated using a MTT reduction assay. 50 μL of MTT solution (1 mg/mL) were added to the wells and incubated for 15-17 hours at 37° C. until formazan crystals were formed. After gently removing the culture medium, DMSO was added to dissolve the insoluble purple formazan product into a colored solution. […] Results were expressed as percentage of control cell growth. The EC50 values (half-maximal effective concentration) used for the combination studies were calculated using Prism v5.02 software (GraphPad). EC50 was expressed as molar concentration and represented the mean of at least three independent assays.
(§3) Using these starting concentrations, constant serial dilutions were performed to generate the concentration-response curves for each set of drugs, alone and in combination.
(§4) Based on this equation, the term “combination index” (CI) is used as a quantitative measure of the degree of drug interactions. […] CI values were calculated by solving the equation for different values of fa (i.e., for different degrees of cell groth inhibition).
(§5) Data were analyzed using CalcuSyn software (Biosoft, Cambridge, UK). For statistical analysis and graphs Prism software (GraphPad, San Diego, USA) was used. All the results represent the mean of at least three independent experiments.
(§6) Additional serial dilutions were prepared in serum-free culture medium to achieve a final 4× concentration. Aliquots of 50 μL of each diluted compound were added per well.
(§7) In the second set of assays, concentration-response curves for the agents tested, both alone and in two-drug combination, were performed.

[3] = tested on: U-937 human lymphoma cell line; assay: cells; conditions: Homo sapiens, U-937, 72 h
Description: as §1, §2, §3, §4, §5, §6, §7

[4] = tested on: PANC-1 human pancreatic carcinoma cell line; assay: cells; conditions: Homo sapiens, PANC-1, 72 h
In short: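 Cells seeded at 5,000/well, left 24 h drug-free, then exposed to test compounds for 72 h. Viability read by MTT reduction (MTT added for 8 h at 37° C, formazan dissolved in DMSO).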

[5] = tested on: HT-29 human colon adenocarcinoma cell line; assay: cells; conditions: Homo sapiens, HT-29, 72 h
In short: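 HT-29 cells (5,000/well) were attached for 24 h, then exposed to vehicle or compounds for 72 h. Viability was read by MTT reduction, with 8 h MTT at 37° C and formazan dissolved in DMSO. Values are % of control cell growth.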

[6] = tested on: HepG2 human hepatocellular liver carcinoma cell line; assay: MTT cytotoxicity assay in HepG2 cells: IC50 of single agents and combinations with PM01183; format: cell-based; conditions: Homo sapiens, HepG2, 72 h

Compound: COc1ccc2[nH]c3c(c2c1)CCN[C@]31CS[C@@H]2c3c(OC(C)=O)c(C)c4c(c3[C@H](COC1=O)N1[C@@H]2[C@H]2c3c(cc(C)c(OC)c3O)C[C@@H]([C@@H]1O)N2C)OCO4 [PM01183]
- % T/C on day 0 ([1]; PM01183 0.045 mg/kg): 98.2%
- % T/C on day 2 ([1]; PM01183 0.045 mg/kg): 101.0%
- % T/C on day 4 ([1]; PM01183 0.045 mg/kg): 80.4%
- % T/C on day 7 ([1]; PM01183 0.045 mg/kg): 83.8%
- % T/C on day 9 ([1]; PM01183 0.045 mg/kg): 78.8%
- % T/C on day 11 ([1]; PM01183 0.045 mg/kg): 77.7%
- % T/C on day 14 ([1]; PM01183 0.045 mg/kg): 76.7%
- % T/C on day 16 ([1]; PM01183 0.045 mg/kg): 82.5%
- % T/C on day 0 ([1]; PM01183 0.09 mg/kg): 97.9%
- % T/C on day 2 ([1]; PM01183 0.09 mg/kg): 99.5%
- % T/C on day 4 ([1]; PM01183 0.09 mg/kg): 74.4%
- % T/C on day 7 ([1]; PM01183 0.09 mg/kg): 85.1%
- % T/C on day 9 ([1]; PM01183 0.09 mg/kg): 69.4%
- % T/C on day 11 ([1]; PM01183 0.09 mg/kg): 71.8%
- % T/C on day 14 ([1]; PM01183 0.09 mg/kg): 74.1%
- % T/C on day 16 ([1]; PM01183 0.09 mg/kg): 73.5%
- % T/C on day 0 ([1]; PM01183 0.135 mg/kg): 98.5%
- % T/C on day 2 ([1]; PM01183 0.135 mg/kg): 90.5%
- % T/C on day 4 ([1]; PM01183 0.135 mg/kg): 61.2%
- % T/C on day 7 ([1]; PM01183 0.135 mg/kg): 71.3%
- % T/C on day 9 ([1]; PM01183 0.135 mg/kg): 67.7%
- % T/C on day 11 ([1]; PM01183 0.135 mg/kg): 65.3%
- % T/C on day 14 ([1]; PM01183 0.135 mg/kg): 64.2%
- % T/C on day 16 ([1]; PM01183 0.135 mg/kg): 63.6%
- % T/C on day 0 ([1]; PM01183 0.18 mg/kg): 99.8%
- % T/C on day 2 ([1]; PM01183 0.18 mg/kg): 95.5%
- % T/C on day 4 ([1]; PM01183 0.18 mg/kg): 64.8%
- % T/C on day 7 ([1]; PM01183 0.18 mg/kg): 63.2%
- % T/C on day 9 ([1]; PM01183 0.18 mg/kg): 52.0%
- % T/C on day 11 ([1]; PM01183 0.18 mg/kg): 44.1%
- % T/C on day 14 ([1]; PM01183 0.18 mg/kg): 38.5%
- % T/C on day 16 ([1]; PM01183 0.18 mg/kg): 37.1%
- EC50 [2]: 1.39 nM
- EC50 [3]: 1.03 nM
- IC50 [4]: 2.8 nM
- IC50 [5]: 3.7 nM
- IC50 [6]: 2.5 nM
